These results are taken from US4604355A, “Maltogenic amylase enzyme, preparation and use thereof” (Novo Industri A/S, priority 1983, dated 1986).

The target of this test is T1, C599 maltogenic amylase from Bacillus strain C599 NCIB 11837 (Geobacillus stearothermophilus, UniProt P19531).
T1 construct: The enzyme is excreted into the medium; made in house; host or cells: Bacillus strain C599 (NCIB 11837), the natural producer; no recombinant host
T1 sequence (P19531 34-719): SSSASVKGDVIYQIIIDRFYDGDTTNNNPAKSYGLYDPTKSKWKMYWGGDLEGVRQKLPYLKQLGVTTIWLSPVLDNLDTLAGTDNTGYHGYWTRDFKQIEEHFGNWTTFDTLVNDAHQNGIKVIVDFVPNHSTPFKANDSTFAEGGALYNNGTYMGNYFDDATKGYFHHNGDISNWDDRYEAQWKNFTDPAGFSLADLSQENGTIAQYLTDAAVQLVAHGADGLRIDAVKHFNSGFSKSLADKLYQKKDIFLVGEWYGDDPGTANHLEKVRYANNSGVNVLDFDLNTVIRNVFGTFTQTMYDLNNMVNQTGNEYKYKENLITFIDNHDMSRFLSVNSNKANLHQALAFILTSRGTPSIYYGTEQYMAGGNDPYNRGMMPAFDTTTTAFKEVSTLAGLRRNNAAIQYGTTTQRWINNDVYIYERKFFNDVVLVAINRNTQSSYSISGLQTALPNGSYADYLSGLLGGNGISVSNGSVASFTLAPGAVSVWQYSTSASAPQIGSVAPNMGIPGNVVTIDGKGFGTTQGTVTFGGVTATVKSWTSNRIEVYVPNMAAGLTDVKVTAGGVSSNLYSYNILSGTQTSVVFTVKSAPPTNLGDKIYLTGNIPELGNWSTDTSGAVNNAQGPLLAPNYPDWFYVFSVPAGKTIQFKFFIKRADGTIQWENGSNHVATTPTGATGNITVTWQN
Nature of the test: Inhibition of C599-amylase (residual activity after incubation with inhibitors). The class given is biochemical. The settings on record: None = 100. The procedure: One maltogenic amylase unit (U) is defined as the amount of enzyme which under standard conditions (temperature 60° C., pH 5.5, and reaction time 30 minutes) produces reducing sugar corresponding to 1 μmol maltose per minute.
A 0.5% soluble starch (supplied by Merck) in 0.1M acetate buffer or 0.05M phosphate buffer (pH 5) is incubated with 1 ml of the enzyme dissolved in deionized water containing 0.1-0.2 U per ml. The reaction is stopped after 30 minutes by addition of 4 ml 0.5N NaOH.
The content of reducing sugar is then determined by means of the Somogyi method (Somogyi: J.Biol.Chem., 153, p. 375-80 (1944).

The structures appear in SMILES notation.

For the molecule `O=C(O)c1cc[c]([Hg][Cl])cc1` [PCMB, parachloromecuribenzoate], the “Residual activity after 60 min. at room temperature, %” value (inhibitor 1 mM) was found to be 92%.
Take `OC[C@H]1O[C@@H]2O[C@H]3[C@H](O)[C@@H](O)[C@@H](O[C@H]4[C@H](O)[C@@H](O)[C@@H](O[C@H]5[C@H](O)[C@@H](O)[C@@H](O[C@H]6[C@H](O)[C@@H](O)[C@@H](O[C@H]7[C@H](O)[C@@H](O)[C@@H](O[C@H]1[C@H](O)[C@H]2O)O[C@@H]7CO)O[C@@H]6CO)O[C@@H]5CO)O[C@@H]4CO)O[C@@H]3CO` [Schardinger-α-cyclodextrin]: the “Residual activity after 60 min. at room temperature, %” value (inhibitor 1%) was 109%.
The same measure, in the same setting: under `OC[C@H]1O[C@@H]2O[C@H]3[C@H](O)[C@@H](O)[C@@H](O[C@H]4[C@H](O)[C@@H](O)[C@@H](O[C@H]5[C@H](O)[C@@H](O)[C@@H](O[C@H]6[C@H](O)[C@@H](O)[C@@H](O[C@H]7[C@H](O)[C@@H](O)[C@@H](O[C@H]8[C@H](O)[C@@H](O)[C@@H](O[C@H]1[C@H](O)[C@H]2O)O[C@@H]8CO)O[C@@H]7CO)O[C@@H]6CO)O[C@@H]5CO)O[C@@H]4CO)O[C@@H]3CO` [Schardinger-β-cyclodextrin] stands 107%.
